Experimental findings from BindingDB's records for doi:10.1016/j.bmcl.2009.12.099 (Methylgene, 2010) are described below.

One may read the IC50 as the midpoint of a concentration-inhibition curve.

A short description of test [1]: Inhibition of c-MET in human DU145 cells by scattering assay.
Test [2] is described as follows: Inhibition of c-MET in human A549 cells by wound healing assay.

Each structure is given as a SMILES string.

For `Cn1cnc(-c2cc3nccc(Oc4ccc(NC(CC(=O)Nc5ccc(F)cc5)C(F)(F)F)cc4F)c3s2)c1` (stereo unspecified) [4,4,4-trifluoro-3-(3-fluoro-4-(2-(1-methyl-1H-imidazol-4-yl)thieno[3,2-b]pyridin-7-yloxy)phenylamino)-N-(4-fluorophenyl)butanamide], the IC50 in test [1] and in test [2] was 400 nM each time.

For `COc1ccccc1NC(=O)CC(Nc1ccc(Oc2ccnc3cc(-c4cn(C)cn4)sc23)c(F)c1)C(F)(F)F` (stereo unspecified) [4,4,4-trifluoro-3-(3-fluoro-4-(2-(1-methyl-1H-imidazol-4-yl)thieno[3,2-b]pyridin-7-yloxy)phenylamino)-N-(2-methoxyphenyl)butanamide], the IC50 in test [1] was 10000 nM; in test [2], 2000 nM.

As to `Cn1cnc(-c2cc3nccc(Oc4ccc(NC(CC(=O)Nc5ccc(F)cc5)C(F)(F)F)cc4)c3s2)c1` (stereo unspecified) [4,4,4-trifluoro-N-(4-fluorophenyl)-3-(4-(2-(1-methyl-1H-imidazol-4-yl)thieno[3,2-b]pyridin-7-yloxy)phenylamino)butanamide], the IC50 in test [1] and in test [2] was 2000 nM throughout.
